According to ChEMBL document CHEMBL1134150, “Synthesis and antiproliferative activity of some thiazolylbenzimidazole-4,7-diones” (Bioorg Med Chem Lett, 2001):
pIC50: −log10 of the molar value.

Tests used:
K562 = test: Antiproliferative activity tested as 50% inhibition of DNA synthesis in human K562 erythroleukemia cell line; type: functional, cell-based
SW-620 = test: Antiproliferative activity tested as 50% inhibition of DNA synthesis in human SW620 colon carcinoma cell line; type: functional, cell-based

Structure (SMILES) | pIC50 (K562) | pIC50 (SW-620)
CCOC(=O)c1csc(-c2nc3c([nH]2)C(=O)C=C(OC)C3=O)n1 | 5.94 | 4.88
O=C(O)c1csc(-c2nc3c([nH]2)C(=O)C=CC3=O)n1 | 4.75 | 5.06
COC1=CC(=O)c2[nH]c(-c3nc(C(=O)O)cs3)nc2C1=O | 4.82 | 4.92
NC(=O)c1csc(-c2nc3c([nH]2)C(=O)C=CC3=O)n1 | 5.11 | 5.52

The remaining molecules from weak to strong by pIC50 (K562), led by results:

pIC50 (K562) | pIC50 (SW-620) | Structure (SMILES)
4.79 | 5.85 | CCOC(=O)c1csc(-c2nc3c([nH]2)C(=O)C=CC3=O)n1
5.88 | 4.80 | COC1=CC(=O)c2[nH]c(-c3nc(C(N)=O)cs3)nc2C1=O
6.21 | 6.12 | COc1cccc2c1C(=O)c1c(O)c3c(c(O)c1C2=O)C[C@@](O)(C(=O)CO)C[C@@H]3O[C@H]1C[C@H](N)[C@H](O)[C@H](C)O1 [DOXORUBICIN]
